# Measured values published in patent US20160200698A1, “VORTIOXETINE SALT AND CRYSTAL THEREOF, THEIR PREPARATION METHOD, PHARMACEUTICAL COMPOSITIONS AND USAGE” (HANGZHOU PUSHAI PHARMACEUTICAL TECHNOLOGY CO., LTD, priority 2013, published 2016).
# Where a name gives a salt, the structure may show the parent alone.
# Experiments:
# Type in all cases: physicochemical
# [1] = Stability competition test (competitive slurry, XRPD analysis); conditions: for Stability Competition Test: crystalline form after competitive slurry (XRPD): ethanol or water, equal quantity of both forms slurried 7 days; for Stability competition test: crystalline form after slurry (summary statement): slurried in water or ethanol, temperature not stated
# Procedure: Stability competition test: An equal quantity (250 mg) of the crystalline vortioxetine hemihydrobromide form of the present invention prepared in example 4 and the β Form of vortioxetine hydrobromide prepared in preparation example 2 were respectively added to 3 mL of ethanol or water to produce suspensions. No solvate was formed in ethanol or water. The suspensions were slurried for 7 days at room temperature or at 60° C., and then XRPD characterization analyses were performed.
# [2] = Dissolution comparison of sustained-release tablets made by the method of example 141; conditions: water, 37° C., paddle 50 r/min
# Procedure: The crystalline form of vortioxetine hemihydrobromide of the present invention and the β Form of vortioxetine hydrobromide prepared in preparation example 2 were tabletted by the method of example 141 and then subjected to dissolution comparison. Water was used as the dissolution medium. Parameter setting of the dissolution tester: The temperature was 37° C. The rotate speed of the stirring paddle was 50 r/min Take 3 ml of the dissolution medium out at 0.5, 1, 2, 6 and 12 hours respectively. Each time after sampling, 3 mL of water was added back to the dissolution medium to supplement the volume. The concentration of the dissolution medium at each time point was determined by HPLC.
# [3] = Hygroscopicity comparison by DVS isothermal sorption curve; conditions: 20%-80% RH range
# Procedure: Dynamic vapor sorption (DVS) data were collected using TA Instruments Q5000 TGA. The instrument control software was Thermal Advantage, and the analytical software was Universal Analysis. Usually, 1-10 mg of the sample was placed in a platinum pan and the weight change of the sample during experiments was recorded. The relative humidity was usually programmed to change from 20% to 80% and then back to 20%, and an isothermal sorption curve could be generated. Depending on specific situations, different sorption and desorption procedures might be used.
# Hygroscopicity comparison: DVS isothermal sorption curves were used, and weight changes within the 20%-80% RH range were measured.
# [4] = Dissolution of tablets made by the method of example 105 (paddle method, water); conditions: 900 mL water, 37° C., paddle 50 r/min
# Procedure: The crystalline form of vortioxetine hemihydrobromide of the present invention, the β Form of vortioxetine hydrobromide prepared in preparation example 2 and the β Form of vortioxetine hydrobromide containing 20% of the crystalline form of vortioxetine hemihydrobromide of the present invention were tabletted by the method in example 105 and then subjected to phase stability comparison. Dissolution was determined by reference to the dissolution conditions of Benorilate Tablets described in 2010 Chinese Pharmacopoeia. The paddle method was used with the paddle rotation speed at 50 r/min 900 mL of water was the dissolution medium. The temperature was 37° C. Take 3 mL of the dissolution medium for sampling at 2, 10, 20, 40 and 60 min respectively. Each time after sampling, 3 mL of water was added back to dissolution medium to supplement the volume. The concentration of the dissolution medium at each time point was measured by HPLC, and the dissolution profile was plotted.
# [5] = Inventors' studies of the known crystalline forms of vortioxetine hydrobromide of WO2007/144005A1; conditions: for Stability under high-temperature conditions: hydrobromide
# Text: In studies, the inventors of the present invention found out that the multiple crystalline forms of vortioxetine hydrobromide disclosed in WO2007/144005A1 have the following disadvantages: […]
# [6] = Storage of the crystalline form in desiccators at controlled humidity; conditions: desiccators at 10% RH-90% RH, room temperature, 4 months
# Text: It is more temperature and humidity robust and is less likely to have content uniformity and stability issues during pharmaceutical production and storage, thus reduces the risk of inefficacy and safety issue caused thereby and improves dosing accuracy.
# [7] = sampling time 0.5 hours, hemihydrobromide
# [8] = sampling time 1 hour, hemihydrobromide
# [9] = sampling time 2 hours, hemihydrobromide
# [10] = sampling time 6 hours, hemihydrobromide
# [11] = sampling time 12 hours, hemihydrobromide
# [12] = sampling time 2 min, hemihydrobromide
# [13] = sampling time 10 min, hemihydrobromide
# [14] = sampling time 20 min, hemihydrobromide
# [15] = sampling time 40 min, hemihydrobromide
# [16] = listed as the known β Form of vortioxetine hydrobromide, hydrobromide
# [17] = sampling time 0.5 hours, hydrobromide
# [18] = sampling time 1 hour, hydrobromide
# [19] = sampling time 2 hours, hydrobromide
# [20] = sampling time 6 hours, hydrobromide
# [21] = sampling time 12 hours, hydrobromide
# [22] = sampling time 2 min, hydrobromide
# [23] = sampling time 10 min, hydrobromide
# [24] = sampling time 20 min, hydrobromide
# [25] = sampling time 40 min, hydrobromide
smiles,measurement,setting,value
Cc1ccc(Sc2ccccc2N2CCNCC2)c(C)c1 [vortioxetine hemihydrobromide],Stability Competition Test: crystalline form after competitive slurry (XRPD),"[1]; 60° C., listed as the vortioxetine hemihydrobromide crystalline form of the present invention, hemihydrobromide",present invention kept unchanged”
same,Stability Competition Test: crystalline form after competitive slurry (XRPD),"[1]; room temperature, listed as the vortioxetine hemihydrobromide crystalline form of the present invention, hemihydrobromide",present invention kept unchanged”
same,Stability competition test: crystalline form after slurry (summary statement),[1]; hemihydrobromide,keeping its crystalline form unchanged
same,Concentration,[2]; [7],0.00225 mg/mL
same,Cumulative dissolution,[2]; [7],8.1%
same,Concentration,[2]; [8],0.00398 mg/mL
same,Cumulative dissolution,[2]; [8],14.3%
same,Concentration,[2]; [9],0.00765 mg/mL
same,Cumulative dissolution,[2]; [9],27.4%
same,Concentration,[2]; [10],0.01264 mg/mL
same,Cumulative dissolution,[2]; [10],58.5%
same,Concentration,[2]; [11],0.02633 mg/mL
same,Cumulative dissolution,[2]; [11],94.5%
same,Hygroscopicity Comparison (weight change),"[3]; listed as Example 4, hemihydrobromide",0.28%
same,Hygroscopicity Comparison (weight change),"[3]; listed as the vortioxetine hemihydrobromide crystalline form of the present invention, hemihydrobromide",0.28%
same,Concentration,[4]; [12],0.00227 mg/mL
same,Cumulative dissolution,[4]; [12],8.2%
same,Concentration,[4]; [13],0.00432 mg/mL
same,Cumulative dissolution,[4]; [13],15.5%
same,Concentration,[4]; [14],0.00772 mg/mL
same,Cumulative dissolution,[4]; [14],27.7%
same,Concentration,[4]; [15],0.01133 mg/mL
same,Cumulative dissolution,[4]; [15],52.4%
same,Cumulative dissolution,[4]; sampling time 60 min,100.0%
same,Concentration,"[4]; sampling time 60 min, hemihydrobromide",0.02786 mg/mL
"Cc1ccc(Sc2ccccc2N2CCNCC2)c(C)c1 [α Form of vortioxetine hydrobromide, vortioxetine hydrobromide]",Crystalline form stability at room temperature,[5]; room temperature,transformed to the β Form of vortioxetine hydrobromide
"Cc1ccc(Sc2ccccc2N2CCNCC2)c(C)c1 [hydrate of vortioxetine hydrobromide, vortioxetine hydrobromide]",Stability under high-temperature conditions,[5],lost water
"Cc1ccc(Sc2ccccc2N2CCNCC2)c(C)c1 [the β Form of vortioxetine hydrobromide, 1-[2-(2,4-dimethylphenylsulfanyl)phenyl]piperazine hydrobromide]",Stability Competition Test: crystalline form after competitive slurry (XRPD),"[1]; 60° C., listed as the known β Form of vortioxetine hydrobromide, hydrobromide",completely transformed into the vortioxetine hemihydrobromide crystalline form of the present invention
same,Stability Competition Test: crystalline form after competitive slurry (XRPD),"[1]; room temperature, listed as the known β Form of vortioxetine hydrobromide, hydrobromide",completely transformed into the vortioxetine hemihydrobromide crystalline form of the present invention
same,Stability competition test: crystalline form after slurry (summary statement),[1]; hydrobromide,failed to maintain its original crystalline form and transformed to the vortioxetine hemihydrobromide crystalline form of the present invention
same,Stability competition test: crystalline form after slurry (summary statement),[1]; [16],completely transformed to the crystalline vortioxetine hemihydrobromide of the present invention
same,Stability competition test: crystalline form after slurry (summary statement),"[1]; listed as β Form of vortioxetine hydrobromide, hydrobromide",failed to maintain its original crystalline form
same,Concentration,[2]; [17],0.01637 mg/mL
same,Cumulative dissolution,[2]; [17],50.0%
same,Concentration,[2]; [18],0.02971 mg/mL
same,Cumulative dissolution,[2]; [18],90.9%
same,Concentration,[2]; [19],0.03081 mg/mL
same,Cumulative dissolution,[2]; [19],94.2%
same,Concentration,[2]; [20],0.03156 mg/mL
same,Cumulative dissolution,[2]; [20],96.5%
same,Concentration,[2]; [21],0.03342 mg/mL
same,Cumulative dissolution,[2]; [21],100.0%
same,Hygroscopicity Comparison (weight change),[3]; [16],0.60%
same,Concentration,[4]; [22],0.01312 mg/mL
same,Cumulative dissolution,[4]; [22],40.1%
same,Concentration,[4]; [23],0.02805 mg/mL
same,Cumulative dissolution,[4]; [23],85.8%
same,Concentration,[4]; [24],0.03002 mg/mL
same,Cumulative dissolution,[4]; [24],91.8%
same,Concentration,[4]; [25],0.03166 mg/mL
same,Cumulative dissolution,[4]; [25],96.8%
same,Concentration,"[4]; sampling time 60 min, hydrobromide",0.03342 mg/mL
Cc1ccc(Sc2ccccc2N2CCNCC2)c(C)c1 [ethyl acetate solvate of vortioxetine hydrobromide],Stability under high-humidity conditions,[5]; high-humidity conditions,transformed to hydrate
same,Stability under high-temperature conditions,[5],lost ethyl acetate
Cc1ccc(Sc2ccccc2N2CCNCC2)c(C)c1 [vortioxetine hydrobromide isopropanol solvate],Crystalline form after storage,[6],remained unchanged
"Cc1ccc(Sc2ccccc2N2CCNCC2)c(C)c1 [γ Form of vortioxetine hydrobromide, vortioxetine hydrobromide]",Stability (general finding),[5],very unstable
same,Hygroscopicity,[5]; low-humidity conditions,2.0%
